In patent publication US5077207A, “Process for the production of L-threonine by fermentation” (Ajinomoto Co., Inc., priority 1989, dated 1991):

Legend:
AJ 12360 (Mutant) = assay: Degree of AHV resistance (growth in glucose minimum liquid medium, absorbance); type: cell-based; conditions: [Brevibacterium] flavum, 24 h, read-out: Relative Degree of Growth (%)
Experimental: (§1) Thereafter, the degrees of AHV resistance of DPS deleted strains AJ 12360 and AJ 12361 were compared against their parent strains. The degree of AHV resistance was determined by cultivating the strain in the complete agar plate medium shown in Table 2 which also contained 1 g/l of DAP, […] of dipicolinic acid and further, in the case of AJ 12361 and its parent strain AC 664, 300 mg/l of L-histidine hydrochloride as a growth promoting substance, at 30° C. for 24 hours. The same medium dispensed in 3 ml into test tubes, was inoculated with the cells, and the inoculated media were cultured while being shaked for 24 hours. The absorbance of each medium was measured at 566 nm under conditions in which AHV was added or was not added to a given medium. To each glucose minimum liquid medium prepared were added, as growth promoting substances, 200 mg/l of L-histidine hydrochloride, in the case of AJ 12361 and AC 664 strains, and 500 mg/l each of DAP and lysine in the case of AJ 12360 and AJ 11955 strains. Especially, since DAP or DAP and lysine often promoted the growth of the DPS deleted or reduced strain, DAP was added to the liquid and plate media in the experiments described so far as needed. […]

AJ 12361 (Mutant) = assay: as above; type: cell-based; conditions: [Brevibacterium] flavum, 24 h, read-out: Relative Degree of Growth (%)
Experimental: as §1

Homoserine Dehydrogenase = Homoserine Dehydrogenase (Corynebacterium glutamicum, UniProt P08499); assay: Homoserine dehydrogenase feedback inhibition by threonine (crude enzyme solution); type: biochemical, Brevibacterium flavum; conditions: 1 mM threonine
Homoserine Dehydrogenase, sequence (P08499 whole entry): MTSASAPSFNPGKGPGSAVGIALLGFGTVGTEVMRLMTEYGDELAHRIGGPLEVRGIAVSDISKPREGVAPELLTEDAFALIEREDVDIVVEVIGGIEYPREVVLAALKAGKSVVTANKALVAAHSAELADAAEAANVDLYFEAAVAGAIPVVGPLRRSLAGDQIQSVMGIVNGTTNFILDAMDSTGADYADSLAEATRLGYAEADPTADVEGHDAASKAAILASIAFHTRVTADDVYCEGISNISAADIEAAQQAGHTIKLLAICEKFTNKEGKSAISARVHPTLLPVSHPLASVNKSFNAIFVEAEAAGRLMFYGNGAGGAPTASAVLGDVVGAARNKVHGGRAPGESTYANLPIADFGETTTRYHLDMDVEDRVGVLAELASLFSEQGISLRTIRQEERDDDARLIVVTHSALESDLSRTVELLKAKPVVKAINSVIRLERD
Experimental: The amount of threonine produced in a given fermentation experiment was measured by the method described below, and the amount of lysine produced was measured by an acidic ninhydrin method. Further, the DPS activity was measured as follows. A medium obtained by adding 1 g/l of DAP to a medium useful for threonine production shown in Table 3 was dispensed in 20 ml amounts into 500 ml flasks which could be shaken. The flasks were sterilized by autoclaving. The medium compositions used were N50S30 for the AJ 12360 strain and N25S35 for the AJ 12361-2 and DA 110 strains. Each medium was inoculated with one loop of the strain which had been previously cultivated in a complete agar plate medium shown in Table 2. Each medium was supplemented with 1 g/l of DAP and 300 mg/l of L-histidine hydrochloride at 30° C. for 24 hours, and culturing was conducted at 30° C. for 40 hours in the shaking flasks. The cells were collected and washed with a 0.2% potassium chloride solution. These washed cells were suspended in a 50 mM potassium phosphate buffer (pH 7.0), and then were centrifugally separated after ultrasonic treatment in a supernatant. The supernatant was gel filtered through a Sephadex G25 column using the same buffer to prepare a crude enzyme solution. The activity was measured by carrying out the reaction at 30° C. for 10 minutes, terminating the reaction by adding 1 ml of 0.05 N hydrochloric acid thereto, and then measuring the change in absorbance at 340 nm by using a reaction mixture shown in Table 8 to determine the amount of pyruvic acid consumed. The control for this reaction was a DL-aspartate-β-semialdehyde-free system. The HD activity was measured as follows. The crude enzyme solution was prepared in a manner similar to that employed in the above-described DPS activity measurement, except that a 0.1 M potassium phosphate buffer containing 0.5 M potassium chloride (pH 7.0) was used as the buffer instead of the 50 mM potassium phosphate buffer. The activity measurement was conducted by measuring the reduction in absorbance at 340 nm in the reaction system shown in Table 9. The control for this reaction was a DL-aspartate-β-semialdehyde-free system. […]

Compound | activity at 200000 µg/mL (AJ 12360 (Mutant)) | activity at 500000 µg/mL (AJ 12360 (Mutant)) | activity at 1 g/mL (AJ 12360 (Mutant)) | activity at 200000 µg/mL (AJ 12361 (Mutant)) | activity at 500000 µg/mL (AJ 12361 (Mutant)) | activity at 1 g/mL (AJ 12361 (Mutant)) | Homoserine Dehydrogenase Feedback Inhibition (%)** (Homoserine Dehydrogenase; enzyme from strain AC 664 (Parent strain)) | Homoserine dehydrogenase feedback inhibition by threonine (%) (Homoserine Dehydrogenase; enzyme from strain AJ 11955 (parent strain)) | Homoserine dehydrogenase feedback inhibition by threonine (%) (Homoserine Dehydrogenase; enzyme from strain AJ 12360 (mutant)) | Homoserine Dehydrogenase Feedback Inhibition (%)** (Homoserine Dehydrogenase; enzyme from strain AJ 12361 (Mutant)) | Homoserine Dehydrogenase Feedback Inhibition (%)** (Homoserine Dehydrogenase; enzyme from strain AJ12362 (Mutant)) | Homoserine Dehydrogenase Feedback Inhibition (%)** (Homoserine Dehydrogenase; enzyme from strain AJ12363 (Mutant)) | Homoserine Dehydrogenase Feedback Inhibition (%)** (Homoserine Dehydrogenase; enzyme from strain DA 110 (Mutant))
CCC(O)C(N)C(=O)O (stereo not drawn) [AHV, α-amino-β-hydroxyvaleric acid] | 46.7% | 42.6% | 37.5% | 105% | 65.8% | 39.1% |  |  |  |  |  |  | 
C[C@@H](O)[C@H](N)C(=O)O [threonine, L-threonine] |  |  |  |  |  |  | 98% | 98% | 98% | 98% | 96% | 16% | 98%
